The record followed here is ChEMBL document CHEMBL4622941, “Discovery of ASP5286: A novel non-immunosuppressive cyclophilin inhibitor for the treatment of HCV” (Bioorg Med Chem Lett, 2020).

In one data set the test system is Splenocyte. The data set is described as follows: Immunosuppressive activity in mouse splenocytes assessed as inhibition of ConA- induced proliferation. Type of data set: functional, cell-based.
A short description of data set [1]: Inhibition of cyclophilin in Hepatitis C virus assessed as inhibition of viral replicon replication by qRT-PCR analysis. More on the design: species or system Hepacivirus hominis. In general terms: In antiviral work, replicon cells carry a viral genome segment that copies itself.
Data set [2] can be described thus: Oral bioavailability in rat. Format: ADME, organism-based. The settings on record: in vivo.
Data set [3] in a line: Inhibition of cyclophilin in Hepatitis C virus assessed as inhibition of viral replicon replication in presence of 10% HSA by qRT-PCR analysis. More on the design: species or system Hepacivirus hominis.
Data set [4] in a line: AUC (0 to 24 hrs) in po dosed rat. Type of data set: ADME, organism-based. More on the design: time < 24 hr, route oral. The settings on record: in vivo.
The nature of data set [5]: Inhibition of cyclophilin in Hepatitis C virus assessed as inhibition of viral replicon replication in presence of 5% FBS by qRT-PCR analysis. The arrangement: species or system Hepacivirus hominis.
Data set [6] in a line: Aqueous solubility of the compound at pH 6.8. Type of data set: physicochemical.
Data set [7] relates to Hepatitis C virus. Description: Antiviral activity against Hepatitis C virus genotype 1b infected in humanized liver SCID-Alb/uPA chimeric mouse assessed as reduction in serum HCV RNA level at 3.75 to 30 mg/kg, po bid administered via gavage for 14 days measured after 7 days without compound administration post-last dose. Format: functional, organism-based. The settings on record: Hepacivirus hominis, subtype 1b.

The subject of data set [8] is Hepatitis C virus. Description: Antiviral activity against Hepatitis C virus genotype 1b infected in humanized liver SCID-Alb/uPA chimeric mouse assessed as reduction in serum HCV RNA level at 3.75 to 30 mg/kg, po bid administered via gavage for 14 days cotreated with peginterferon-alpha2a at 10 ug/kg, sc administered twice a week and measured after 7 days without compound administration post-last dose. Conditions: Hepacivirus hominis, subtype 1b. Format: functional, organism-based.

≈ marks a conversion by molar mass, not a printed value. Calls of active or inactive are those of the source. The rule behind the calls is not given here. Where a SMILES comes first, the peptide text is derived from it. [ ]: non-standard residue; d: D form. MeBmt = C/C=C/C[C@@H](C)[C@@H](O)[C@H](NC)C(=O)O; NMePhg = CN[C@H](C(=O)O)c1ccccc1; NMeT = CN[C@H](C(=O)O)[C@@H](C)O; NMeL = CN[C@@H](CC(C)C)C(=O)O; NMeV = CN[C@H](C(=O)O)C(C)C; dNMeA = CN[C@H](C)C(=O)O; Sar = CNCC(=O)O

Consider `C/C=C/C[C@@H](C)[C@@H](O)[C@H]1C(=O)N[C@@H]([C@@H](C)O)C(=O)N(C)CC(=O)N(C)[C@@H](c2ccccc2)C(=O)N[C@@H](CC(C)C)C(=O)N(C)[C@@H](CC(C)C)C(=O)N[C@@H](C)C(=O)N[C@H](C)C(=O)N(C)[C@@H](CC(C)C)C(=O)N[C@@H](CC(C)C)C(=O)N(C)[C@@H](C(C)C)C(=O)N1C`, for which the IC50 with Splenocyte amounted to 0.8 µg/mL (≈ 0.646 µM). In data set [1], the EC50 was 0.12 µg/mL (≈ 0.0969 µM).
On to `C/C=C/C[C@@H](C)[C@@H](O)[C@H]1C(=O)N[C@@H]([C@@H](C)O)C(=O)N(C)CC(=O)N(C)[C@@H](CC2CCCCC2)C(=O)N[C@@H](CC(C)C)C(=O)N(C)[C@@H](CC(C)C)C(=O)N[C@@H](C)C(=O)N[C@H](C)C(=O)N(C)[C@@H](CC(C)C)C(=O)N[C@@H](CC(C)C)C(=O)N(C)[C@@H](C(C)C)C(=O)N1C`, for which, in the data set with Splenocyte, the half-inhibitory concentration (IC50) worked out at 0.065 µg/mL (≈ 0.0516 µM). For the same compound, the EC50 in [1] is 0.086 µg/mL (≈ 0.0683 µM).
For the compound `C/C=C/C[C@@H](C)[C@@H](O)[C@H]1C(=O)N[C@@H]([C@@H](C)O)C(=O)N(C)CC(=O)N(C)[C@@H]([C@@H](C)CC)C(=O)N[C@@H](CC(C)C)C(=O)N(C)[C@@H](CC(C)C)C(=O)N[C@@H](C)C(=O)N[C@H](C)C(=O)N(C)[C@@H](CC(C)C)C(=O)N[C@@H](CC(C)C)C(=O)N(C)[C@@H](C(C)C)C(=O)N1C`, the bioavailability in data set [2] was determined as 2.1%. For the same compound, the EC50 in data set [3] was determined as 2 µg/mL; in data set [5], 0.15 µg/mL; in [1], 0.15 µg/mL (≈ 0.123 µM). In addition, the IC50 in the data set on Splenocyte was 0.77 µg/mL (≈ 0.632 µM). The AUC(0-t) at 24 h in data set [4] is 111 ng·h/mL. Besides, the concentration in solution in data set [6] (solubility) was 0.2 µg/mL (≈ 0.164 µM).
With `C/C=C/C[C@@H](C)[C@@H](O)[C@H]1C(=O)N[C@@H]([C@@H](C)O)C(=O)N(C)[C@H](C)C(=O)N(C)[C@@H]([C@@H](C)OC(C)(C)C)C(=O)N[C@@H](CC(C)C)C(=O)N(C)[C@@H](CC(C)C)C(=O)N[C@@H](C)C(=O)N[C@H](C)C(=O)N(C)[C@@H](CC(C)C)C(=O)N[C@@H](CC(C)C)C(=O)N(C)[C@@H](C(C)C)C(=O)N1C`, the bioavailability in [2] was found to be 74%. The EC50 in data set [3] is 0.11 µg/mL; in data set [5] it was 0.03 µg/mL. The IC50 in the data set on Splenocyte was 1.6 µg/mL (≈ 1.25 µM). Moreover, in data set [4], the AUC(0-t) at 24 h was determined as 9450 ng·h/mL. In addition, in data set [6], the solubility was below 0.1 µg/mL.
For the compound `C/C=C/C[C@@H](C)[C@@H](O)[C@H]1C(=O)N[C@@H]([C@@H](C)O)C(=O)N(C)[C@H](C)C(=O)N(C)[C@@H](C2CCCCC2)C(=O)N[C@@H](CC(C)C)C(=O)N(C)[C@@H](CC(C)C)C(=O)N[C@@H](C)C(=O)N[C@H](C)C(=O)N(C)[C@@H](CC(C)C)C(=O)N[C@@H](CC(C)C)C(=O)N(C)[C@@H](C(C)C)C(=O)N1C`, the IC50 in the data set on Splenocyte is 0.35 µg/mL (≈ 0.278 µM). Also, the EC50 in [1] turned out to be 0.042 µg/mL (≈ 0.0334 µM).
`C/C=C/C[C@@H](C)[C@@H](O)[C@H]1C(=O)N[C@@H]([C@@H](C)O)C(=O)N(C)CC(=O)N(C)[C@@H](CC(C)C)C(=O)N[C@@H](CC(C)C)C(=O)N(C)[C@@H](CC(C)C)C(=O)N[C@@H](C)C(=O)N[C@H](C)C(=O)N(C)[C@@H](CC(C)C)C(=O)N[C@@H](CC(C)C)C(=O)N(C)[C@@H](C(C)C)C(=O)N1C` (cyclo(A[dA][NMeL]L[NMeV][MeBmt]T[Sar][NMeL]L[NMeL])) gave a bioavailability in data set [2] of 4.3%. Further, the concentration giving a half-maximal response (EC50) in [3] amounted to 0.37 µg/mL; in data set [5], 0.096 µg/mL; in data set [1], 0.096 µg/mL (≈ 0.0788 µM). The IC50 in the data set with Splenocyte came to 0.026 µg/mL (≈ 0.0213 µM). In addition, in [4], the AUC(0-t) at 24 h is 140 ng·h/mL. In data set [6], this compound showed a solubility of 6.5 µg/mL (≈ 5.33 µM).
On to `C/C=C/C[C@@H](C)[C@@H](O)[C@H]1C(=O)N[C@@H]([C@@H](C)O)C(=O)N(C)[C@H](C)C(=O)N(C)[C@@H](c2ccccc2)C(=O)N[C@@H](CC(C)C)C(=O)N(C)[C@@H](CC(C)C)C(=O)N[C@@H](C)C(=O)N[C@H](C)C(=O)N(C)[C@@H](CC(C)C)C(=O)N[C@@H](CC(C)C)C(=O)N(C)[C@@H](C(C)C)C(=O)N1C` (cyclo(A[dA][NMeL]L[NMeV][MeBmt]T[dNMeA][NMePhg]L[NMeL])), for which, in the data set with Splenocyte, the IC50 amounted to 1.35 µg/mL (≈ 1.08 µM). Further, the concentration giving a half-maximal response (EC50) in data set [1] came to 0.084 µg/mL (≈ 0.0671 µM).
For `C/C=C/C[C@@H](C)[C@@H](O)[C@H]1C(=O)N[C@@H]([C@@H](C)O)C(=O)N(C)[C@H](C)C(=O)N(C)[C@@H]([C@@H](C)OC)C(=O)N[C@@H](CC(C)C)C(=O)N(C)[C@@H](CC(C)C)C(=O)N[C@@H](C)C(=O)N[C@H](C)C(=O)N(C)[C@@H](CC(C)C)C(=O)N[C@@H](CC(C)C)C(=O)N(C)[C@@H](C(C)C)C(=O)N1C` (cyclo(A[dA][NMeL]L[NMeV][MeBmt]T[dNMeA][NMeT](Me)L[NMeL])), the result in the data set with Hepatitis C virus [7] and with Hepatitis C virus [8] was Active. In addition, the bioavailability in data set [2] was 36%. Moreover, the figures for the EC50 in [3] and in [5] were 0.061 µg/mL and 0.04 µg/mL, respectively. For the same compound, the IC50 in the data set with Splenocyte was 0.97 µg/mL (≈ 0.786 µM). The same compound showed an area under the curve AUC(0-t) at 24 h in data set [4] of 16100 ng·h/mL. In [6], the solubility amounted to 117 µg/mL (≈ 94.8 µM).
On to `C/C=C/C[C@@H](C)[C@@H](O)[C@H]1C(=O)N[C@@H]([C@@H](C)O)C(=O)N(C)[C@H](C)C(=O)N(C)[C@@H]([C@@H](C)CC)C(=O)N[C@@H](CC(C)C)C(=O)N(C)[C@@H](CC(C)C)C(=O)N[C@@H](C)C(=O)N[C@H](C)C(=O)N(C)[C@@H](CC(C)C)C(=O)N[C@@H](CC(C)C)C(=O)N(C)[C@@H](C(C)C)C(=O)N1C`, for which, in data set [2], the bioavailability was determined as 49%. Moreover, the results for the concentration giving a half-maximal response (EC50) in data set [3], in [5] and in [1] were 0.05 µg/mL, 0.039 µg/mL and 0.039 µg/mL (≈ 0.0316 µM), respectively. Besides, the IC50 in the data set with Splenocyte is 1.1 µg/mL (≈ 0.892 µM). In addition, the AUC(0-t) at 24 h in data set [4] amounted to 13300 ng·h/mL. Moreover, the solubility in data set [6] was below 0.1 µg/mL.
The compound `C/C=C/C[C@@H](C)[C@@H](O)[C@H]1C(=O)N[C@@H]([C@@H](C)O)C(=O)N(C)[C@H](C)C(=O)N(C)[C@@H]([C@@H](C)OO)C(=O)N[C@@H](CC(C)C)C(=O)N(C)[C@@H](CC(C)C)C(=O)N[C@@H](C)C(=O)N[C@H](C)C(=O)N(C)[C@@H](CC(C)C)C(=O)N[C@@H](CC(C)C)C(=O)N(C)[C@@H](C(C)C)C(=O)N1C` returned a bioavailability in data set [2] of 32%. Also, the EC50 in data set [3] came out at 0.086 µg/mL; in data set [5], 0.061 µg/mL. Also, the IC50 in the data set on Splenocyte stood at 1.9 µg/mL (≈ 1.54 µM). This compound also showed an AUC(0-t) at 24 h in data set [4] of 5680 ng·h/mL. Moreover, in [6], the solubility was above 122 µg/mL.
`C/C=C/C[C@@H](C)[C@@H](O)[C@H]1C(=O)N[C@@H]([C@@H](C)O)C(=O)N(C)[C@H](C)C(=O)N(C)[C@@H](CC(C)C)C(=O)N[C@@H](CC(C)C)C(=O)N(C)[C@@H](CC(C)C)C(=O)N[C@@H](C)C(=O)N[C@H](C)C(=O)N(C)[C@@H](CC(C)C)C(=O)N[C@@H](CC(C)C)C(=O)N(C)[C@@H](C(C)C)C(=O)N1C` gave a bioavailability in data set [2] of 40%. Besides, the EC50 in data set [3] stood at 0.35 µg/mL; in data set [5], 0.038 µg/mL; in [1], 0.038 µg/mL (≈ 0.0308 µM). Moreover, the IC50 in the data set on Splenocyte was 0.07 µg/mL (≈ 0.0568 µM). Also, the AUC(0-t) at 24 h in data set [4] is 4210 ng·h/mL.
Regarding `C/C=C/C[C@@H](C)[C@@H](O)[C@H]1C(=O)N[C@@H]([C@@H](C)O)C(=O)N(C)CC(=O)N(C)[C@@H](C2CCCCC2)C(=O)N[C@@H](CC(C)C)C(=O)N(C)[C@@H](CC(C)C)C(=O)N[C@@H](C)C(=O)N[C@H](C)C(=O)N(C)[C@@H](CC(C)C)C(=O)N[C@@H](CC(C)C)C(=O)N(C)[C@@H](C(C)C)C(=O)N1C`, the 50% inhibitory concentration (IC50) in the data set on Splenocyte was 0.41 µg/mL (≈ 0.329 µM). For the same compound, the concentration giving a half-maximal response (EC50) in data set [1] was found to be 0.063 µg/mL (≈ 0.0506 µM).

Broadly, the IC50 is the point on the concentration scale where inhibition reaches its midpoint. One may read the EC50 as the concentration giving half of the maximal effect. A word on the bioavailability: it is dose-corrected exposure relative to a reference, in per cent. One may read the AUC(0-t) as exposure summed from dosing to a finite time, without extrapolation to infinity. What is called solubility is the concentration that dissolves in the medium under given conditions.
